Our source for the Ki values is ChEMBL document CHEMBL1136287, “Synthesis and testing of novel phenyl substituted side-chain analogues of classical cannabinoids” (Bioorg Med Chem Lett, 2003).

Assay [1] addresses T1, Cannabinoid receptor 1 (Homo sapiens, UniProt P21554). The assay is described as follows: Binding affinity towards Cannabinoid receptor 1.
Assay [2] concerns the target T2, Cannabinoid receptor 2 (Homo sapiens, UniProt P34972). The assay is described as follows: Binding affinity towards Cannabinoid receptor 2.
Assay [3] concerns the target T1, Cannabinoid receptor 1. The assay is described as follows: Binding affinity towards Cannabinoid receptor 1 using CP-55940 as radioligand in HEK293 EBNA cells. Type of assay: cell-based.
The target of assay [4] is T2, Cannabinoid receptor 2. The assay is described as follows: Binding affinity towards Cannabinoid receptor 2 using CP-55940 as radioligand in HEK293 EBNA cells. It is filed as cell-based.

T1 sequence (P21554 whole entry): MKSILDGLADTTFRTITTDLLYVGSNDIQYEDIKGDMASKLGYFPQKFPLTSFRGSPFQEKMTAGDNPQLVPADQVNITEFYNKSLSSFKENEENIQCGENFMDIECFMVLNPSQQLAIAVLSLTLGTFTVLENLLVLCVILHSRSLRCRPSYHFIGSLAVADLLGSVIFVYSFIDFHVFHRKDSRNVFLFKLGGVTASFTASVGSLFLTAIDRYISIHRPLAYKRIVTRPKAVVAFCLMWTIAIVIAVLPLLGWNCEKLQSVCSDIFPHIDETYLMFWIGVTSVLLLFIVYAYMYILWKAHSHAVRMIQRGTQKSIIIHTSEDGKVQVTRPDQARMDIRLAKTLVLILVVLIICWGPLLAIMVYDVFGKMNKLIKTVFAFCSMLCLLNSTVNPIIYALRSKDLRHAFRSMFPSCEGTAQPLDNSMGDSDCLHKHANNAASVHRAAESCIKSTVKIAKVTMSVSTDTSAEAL
T2 sequence (P34972 whole entry): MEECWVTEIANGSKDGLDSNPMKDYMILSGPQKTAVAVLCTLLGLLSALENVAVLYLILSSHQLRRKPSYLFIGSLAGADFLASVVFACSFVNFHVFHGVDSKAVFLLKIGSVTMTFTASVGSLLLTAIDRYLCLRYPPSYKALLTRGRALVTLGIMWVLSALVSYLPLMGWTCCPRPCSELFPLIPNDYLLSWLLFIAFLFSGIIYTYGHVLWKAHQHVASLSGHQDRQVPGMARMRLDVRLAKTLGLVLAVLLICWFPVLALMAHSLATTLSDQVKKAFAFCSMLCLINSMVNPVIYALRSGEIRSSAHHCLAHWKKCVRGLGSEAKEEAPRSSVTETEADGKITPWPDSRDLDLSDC

Consider `CC1=CC[C@@H]2[C@@H](C1)c1c(O)cc(C3(C4CCCCC4)SCCS3)cc1OC2(C)C`, for which the values for the Ki in assay [1] and in assay [2] were 1.86 nM and 1.05 nM, respectively.
Regarding `CC1=CC[C@@H]2[C@@H](C1)c1c(O)cc(C3(c4ccccc4)SCCS3)cc1OC2(C)C`, the figures for the Ki in assay [3] and in assay [4] were 17.3 nM and 17.6 nM, respectively.
On the same counts, the results for `CC1=CC[C@@H]2[C@@H](C1)c1c(O)cc(C(C)(C)c3ccccc3)cc1OC2(C)C` are 12.3 nM and 0.91 nM.
As for `CC1=CC[C@@H]2[C@@H](C1)c1c(O)cc(C(C)(C)C3CCCCC3)cc1OC2(C)C`, the values for the Ki in assay [3] and in assay [4] were 0.57 nM and 0.65 nM, respectively.
As to `CC1=CC[C@@H]2[C@@H](C1)c1c(O)cc(Cc3ccccc3)cc1OC2(C)C`, the Ki in assay [3] stood at 67.6 nM; in assay [4] it was 85.9 nM.
